Data reported in publication PMC7170388, “Strong inhibitory activities and action modes of lipopeptides on lipase” (Journal of Enzyme Inhibition and Medicinal Chemistry, 2020).
In brackets after ≈: the same amount, converted by molar mass. Where two headings read alike, the source gives them in different places. No end group written: not given here.

Key:
lipase = conditions: cited from earlier work; for IC50 on lipase: previously reported
Text: The inhibition mechanisms of crude lipopeptide, fengycin, and surfactin on lipase catalysis were studied.

[1] = reported to cause certain side effects; cited from earlier work
Text: Dietary and lifestyle modifications such as calorie restriction and physical exercises are the common strategies adopted to control body weight; further, these methods have limited anti-obesity effects. It has previously been reported that lipase inhibition is a potential strategy for counteracting obesity. Digestive lipase hydrolyses non-absorbable dietary triglycerides to smaller absorbable molecules of monoglycerides and free fatty acids, which are absorbed by the intestine. Inhibiting digestive lipase can reduce intestinal fat absorption. Human pancreatic lipase is the main enzyme ...

Mucor miehei lipase [2] = target: T1, Mucor miehei lipase (Mucor miehei, UniProt P19515 95-363)
T1 sequence (looked up): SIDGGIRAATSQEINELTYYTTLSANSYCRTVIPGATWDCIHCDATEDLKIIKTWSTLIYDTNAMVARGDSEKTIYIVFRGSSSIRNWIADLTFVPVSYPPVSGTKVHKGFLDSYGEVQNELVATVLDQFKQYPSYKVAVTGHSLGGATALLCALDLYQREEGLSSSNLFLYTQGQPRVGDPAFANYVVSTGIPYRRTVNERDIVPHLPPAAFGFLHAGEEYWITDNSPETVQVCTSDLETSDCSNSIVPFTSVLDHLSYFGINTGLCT

Mucor miehei lipase [3] = target: T1, Mucor miehei lipase; experiment: other fluorescence titration; quenching of the intrinsic fluorescence of lipase (emission peak 338 nm) by crude lipopeptide at 0-0.457 mg/mL; Stern-Volmer and double-logarithmic plots
Mucor miehei lipase [4] = target: T2, Mucor miehei lipase (Rhizomucor miehei, UniProt P19515); experiment: Inhibition mechanism and type of lipopeptides on lipase (activity vs enzyme concentration; Lineweaver-Burk); format: biochemical; set-up: purchased Sigma-Aldrich (St. Louis, MO); conditions: for Inhibition effect: Type: Lineweaver-Burk plot, Tris-HCl buffer, 100 µL lipase; for IC50, Calculated: calculated value of Table 2; for Inhibition effect: Mechanisms: remaining enzyme activity vs enzyme concentration, lines intersecting at the origin, fixed substrate; for Inhibition constant KI: secondary plot of 1/Vm versus inhibitor concentration
T2 sequence (P19515 95-363): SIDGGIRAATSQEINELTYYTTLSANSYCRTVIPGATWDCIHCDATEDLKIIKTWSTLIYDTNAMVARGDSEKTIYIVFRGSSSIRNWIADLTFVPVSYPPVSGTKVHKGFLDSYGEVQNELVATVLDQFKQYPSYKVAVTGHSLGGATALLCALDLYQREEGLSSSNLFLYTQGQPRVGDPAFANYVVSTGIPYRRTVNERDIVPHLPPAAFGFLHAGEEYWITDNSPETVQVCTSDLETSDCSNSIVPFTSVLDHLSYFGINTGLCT
Protocol: The inhibition mechanisms were studied by fixing the concentration of substrate and changing the lipopeptides and enzymes to monitor enzymatic reaction. The inhibition types were determined based on the Lineweaver-Burk plot[22]; this reaction system contained different concentrations of substrate and lipopeptide and 100 µL of lipase in Tris-HCl buffer. Then, the inhibition constant was calculated from a secondary plot of 1/Vm versus the inhibitor concentration.

Mucor miehei lipase [5] = target: T2, Mucor miehei lipase; experiment: Lipase inhibition (4-NPP hydrolysis, 405 nm); conditions: relative to iturin
Protocol: Lyophilised powder of Mucor miehei lipase (EC3.1.1.3), 4-Nitrophenyl palmitate (4-NPP), iturin, and surfactin were purchased from Sigma-Aldrich (St. Louis, MO). Acetonitrile, hydrochloric acid (HCl) and Tris were purchased from Sinopharm (Shanghai, China).
The lipase inhibition was determined according to the method described by Liu et al.[21] 10 µg/mL lipase in water and 7.5 mmol/L 4-NPP in acetonitrile solutions were prepared. […] The 1 mL reaction mixture contained 0.75 mM 4-NPP, 0.4 µg/mL lipase, and different concentrations of inhibitor in Tris-HCl buffer (pH 7.8). The reaction was carried out at 37 °C and the detection wavelength was set at 405 nm.

Mucor miehei lipase [6] = target: T1, Mucor miehei lipase; remark: listed apart in the source
[7] = from 72 mN/m; cited from earlier work
Text: In fact, it has been reported that bacterial cyclic lipopeptides are the most popular amphiphilic molecules that are excellent surface active compounds[12]. The genus Bacillus is described as an efficient source of lipopeptide biosurfactants. The Bacillus lipopeptides are divided into three different families, including iturins, surfactins, and fengycins, ...

Mucor miehei lipase [8] = target: T1, Mucor miehei lipase; experiment: cell-based or functional assay

Molecule: O=C(O)c1ccco1 [furoic acid]
- inhibition mechanism on lipase (lipase): reversible
- IC50 on lipase (lipase): 242 µg/mL (≈ 2.16 mM)

Molecule: CCCCCCCCCCC[C@@H](C[C@@H]1OC(=O)[C@H]1CCCCCC)OC(=O)[C@H](CC(C)C)NC=O [orlistat]
- inhibition mechanism on lipase (lipase): irreversible
- side effects [1]: oily stools, oily spotting, and flatulence

Molecule: O=C(O)C(=O)O [oxalic acid]
- inhibition mechanism on lipase (lipase): reversible
- IC50 on lipase (lipase): 1425 µg/mL (≈ 15.8 mM)

Molecule: crude lipopeptide from Bacillus velezensis FJAT-52631
- IC50 (calculated) of inhibition of lipase activity (Mucor miehei lipase [2]): 8 µg/mL
- IC50 (measured) of inhibition of lipase activity (4-NPP hydrolysis) (Mucor miehei lipase [2]): 11 µg/mL
- Ksv (Stern-Volmer quenching constant) (Mucor miehei lipase [3]): 0.525 L/g
- stoichiometry N (Mucor miehei lipase [3]): 0.78

Molecule: fengycin
- Inhibition effect: Type (Mucor miehei lipase [4]): Competitive inhibition
- Inhibition effect: Type (Mucor miehei lipase [4]; listed as fengycin): competitive
- IC50, Calculated (Mucor miehei lipase [4]): 2 µg/mL
- Inhibition effect: Mechanisms (Mucor miehei lipase [4]): Reversible
- Inhibition constant KI (Mucor miehei lipase [4]): 1 µg/mL
- stronger lipase inhibition activity than iturin (Mucor miehei lipase [5]): about 10 -fold

Molecule: iturin standard (peptide)
- IC50 of inhibition of lipase activity (4-NPP hydrolysis) (Mucor miehei lipase [6]): 56 µg/mL

Molecule: purified fengycin from Bacillus velezensis FJAT-52631 (peptide)
- IC50 (calculated) of inhibition of lipase activity (Mucor miehei lipase [2]): 2 µg/mL
- IC50 (measured) of inhibition of lipase activity (4-NPP hydrolysis) (Mucor miehei lipase [2]): 5 µg/mL

Molecule: surfactin
- surface tension of water lowered to [7]: 27 mN/m
- Inhibition effect: Type (Mucor miehei lipase [4]): Competitive inhibition
- Inhibition effect: Type (Mucor miehei lipase [4]; listed as surfactin): competitive
- IC50, Calculated (Mucor miehei lipase [4]): 1 µg/mL
- Inhibition effect: Mechanisms (Mucor miehei lipase [4]): Reversible
- Inhibition constant KI (Mucor miehei lipase [4]): 1 µg/mL
- stronger lipase inhibition activity than iturin (Mucor miehei lipase [5]): about 10 -fold

B1: surfactin standard (peptide)
chain: ELLVDLL
modifications: not fully specified (residues 3, 6, N-terminus, bridges); also: cyclic peptide ring with beta-hydroxy fatty acid chain, attachment not given here
- IC50 (calculated) of inhibition of lipase activity (Mucor miehei lipase [8]): 1 µg/mL
- IC50 (measured) of inhibition of lipase activity (4-NPP hydrolysis) (Mucor miehei lipase [8]): 5 µg/mL
